The values below come from ChEMBL document CHEMBL1629693, “Intracellular concentrations of posaconazole in different compartments of peripheral blood” (Antimicrob Agents Chemother, 2010).

A short description of series [1]: Ratio of intracellular to extracellular drug uptake in alveolar macrophages of New Zealand white rabbit infected with Mycobacterium bovis at 1 ug/ml in presence of 100% serum. In kind it is ADME, cell-based, Oryctolagus cuniculus. The settings on record: macrophage.
Series [2] in a line: Ratio of cellular uptake in alveolar macrophages to plasma of healthy human.
The nature of series [3]: Ratio of intracellular to extracellular drug uptake in alveolar macrophages of New Zealand white rabbit infected with Mycobacterium bovis at 1 ug/ml in presence of 5% serum. In kind it is ADME, cell-based, Oryctolagus cuniculus. Conditions: macrophage.
Series [4] in a line: Ratio of cellular uptake in alveolar macrophages to plasma of healthy human at 14 doses of […], twice daily. In kind it is ADME, organism-based.
Series [5] is described as follows: Ratio of intracellular to extracellular drug uptake in alveolar macrophages of New Zealand white rabbit infected with Mycobacterium bovis at 1 ug/ml. The settings on record: macrophage. In kind it is ADME, cell-based, Oryctolagus cuniculus.
Series [6] is described as follows: Ratio of intracellular to extracellular drug uptake in RBC of New Zealand white rabbit infected with Mycobacterium bovis at 1 ug/ml. In kind it is ADME, cell-based, Oryctolagus cuniculus. Conditions: erythrocyte.
Series [7] in a line: Drug uptake in human PMNC assessed as increase in intracellular compound concentration by radiometric assay relative to control. In kind it is ADME, cell-based.
Series [8] in a line: Cellular uptake in RBC of patient with hematological malignancies at 200 mg administered 3 to 4 times a day measured by liquid chromatography-tandem mass spectroscopy. The settings on record: human, in vivo.
The test system of series [9] is PBMC. The series can be described thus: Ratio of intracellular to extracellular cellular uptake in PBMC of patient with hematological malignancies at 200 mg administered 3 to 4 times a day measured by liquid chromatography-tandem mass spectroscopy. Conditions: human, in vivo.
Series [10] in a line: Cellular uptake in PMNC of patient with hematological malignancies at 200 mg administered 3 to 4 times a day measured by liquid chromatography-tandem mass spectroscopy. Conditions: human, in vivo.
Series [11] in a line: Ratio of intracellular to extracellular cellular uptake in RBC of patient with hematological malignancies at 200 mg administered 3 to 4 times a day measured by liquid chromatography-tandem mass spectroscopy. The settings on record: human, in vivo.
A further series relates to Plasma. Description: Drug uptake in plasma of patient with hematological malignancies at 200 mg administered 3 to 4 times a day measured by liquid chromatography-tandem mass spectroscopy. The settings on record: human, in vivo.
Series [12] has as its system PBMC. The series can be described thus: Cellular uptake in PBMC of patient with hematological malignancies at 200 mg administered 3 to 4 times a day measured by liquid chromatography-tandem mass spectroscopy. The settings on record: human, in vivo.
The nature of series [13]: Ratio of intracellular to extracellular cellular uptake in PMNC of patient with hematological malignancies at 200 mg administered 3 to 4 times a day measured by liquid chromatography-tandem mass spectroscopy. The settings on record: human, in vivo.

Regarding `CCC(C)n1ncn(-c2ccc(N3CCN(c4ccc(OCC5COC(Cn6cncn6)(c6ccc(Cl)cc6Cl)O5)cc4)CC3)cc2)c1=O` (stereo not given) [ITRACONAZOLE], the Ratio came to 3 in [1], 18 in series [3], 87.9 in series [5] and 90.4 in series [6]. In addition, the values for the Kp in series [2] and in [4] were 27.3 and 44.3, respectively.

As to `OC(Cn1cncn1)(Cn1cncn1)c1ccc(F)cc1F` [FLUCONAZOLE], the “fold change (FC)” value in [7] turned out to be 2.2.

Take `CC[C@@H]([C@H](C)O)n1ncn(-c2ccc(N3CCN(c4ccc(OC[C@@H]5CO[C@@](Cn6cncn6)(c6ccc(F)cc6F)C5)cc4)CC3)cc2)c1=O` [POSACONAZOLE]: the Drug uptake in series [8] turned out to be 50.8 ng/mL; in series [10], 4031 ng/mL; with Plasma it was 603.2 ng/mL; with PBMC [12], 12764 ng/mL. The Ratio stood at 22.5 in the series on PBMC [9], 0.09 in series [11] and 7.66 in series [13].

Turning to `C[C@@H](c1ncncc1F)[C@](O)(Cn1cncn1)c1ccc(F)cc1F` [VORICONAZOLE], the “fold change (FC)” value in series [7] is given as 8.5.

Usually Kp stands for the ratio of the level in a tissue or fluid to that in plasma or blood.
